Results reported in paper PMC11489226 (Archives of Toxicology, 2024).

Molecular target: T1, CYP2C9 (Homo sapiens, UniProt P11712)
T1 construct: V5-His (vector-encoded) (C); expressed in transfected cells
Assay: Metabolism in transgenic HEK293 cells expressing CYP2C9
Format: in vitro ADME
Conditions: HEK293CYP2C9; 10 µM substrate, 24 h
Procedure: For the generation of transgenic cell lines, we used semi-adherent HEK293 cells (DSMZ, ACC305, human embryonic kidney cells) which were cultured on a daily basis in DMEM medium supplemented with 10% (FCS) and 1% penicillin/streptomycin. In a first step CYP1A2, CYP2C8, CYP2C9, CYP3A4, CYP2A6, and CYP2E1 cDNA were cloned into the plasmid pcDNATM3.1/V5-His TOPO® using human liver RNA as a template and using the following primers: CYP1A2 for5′-[…]-3′, CYP1A2 rev 5′-[…]-3′; CYP2C8 for 5′-[…]-3′, CYP2C8 rev 5′-[…]-3′; CYP2C9 for 5′-[…]-3′, CYP2C9 rev 5′-[…]-3′; CYP3A4 for 5′-[…]-3′, CYP3A4 rev 5′-[…]-3′, CYP2A6 for 5′-[…]-3′, CYP2A6 rev 5′-[…]-3′; CYP2E1 for 5′-[…]-3′, CYP2E1 rev 5′-[…]-3′. Final constructs were verified with Sanger DNA sequencing and restriction digestion. For transfection, 3 × 10^6 HEK293 cells were pre-incubated in a 10 cm dish in DMEM medium with 10% FCS, but without antibiotics, for 18 to 24 h. When the cells reached approximately 70% confluency, they were transfected using TransIT-LT1 transfection reagent (Biozol, Eiching, Germany). […]
HEK293 cells overexpressing the respective CYP enzymes were seeded onto 6-well plates and were treated with or without 10 µM of the respective probe drug in DMEM medium for 24 hours at 37 °C and 5 % CO2. […] Analytes were measured by LC-MS/MS either in methanol cell lysates or in DMEM supernatant. […]

T1 sequence (P11712 whole entry): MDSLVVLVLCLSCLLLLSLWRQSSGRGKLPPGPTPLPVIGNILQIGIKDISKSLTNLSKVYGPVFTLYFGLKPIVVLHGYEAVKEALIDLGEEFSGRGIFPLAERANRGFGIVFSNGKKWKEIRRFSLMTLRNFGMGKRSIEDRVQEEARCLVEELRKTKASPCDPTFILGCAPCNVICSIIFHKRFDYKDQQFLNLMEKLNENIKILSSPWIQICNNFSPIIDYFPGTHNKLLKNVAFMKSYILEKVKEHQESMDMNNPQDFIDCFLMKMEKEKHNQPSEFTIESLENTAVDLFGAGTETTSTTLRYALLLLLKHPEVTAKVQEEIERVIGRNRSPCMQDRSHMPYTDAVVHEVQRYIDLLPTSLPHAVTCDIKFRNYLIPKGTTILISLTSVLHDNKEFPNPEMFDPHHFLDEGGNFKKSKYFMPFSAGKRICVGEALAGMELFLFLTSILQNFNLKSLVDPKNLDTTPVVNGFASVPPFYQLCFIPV

## Cc1cccc(Nc2ccncc2S(=O)(=O)NC(=O)NC(C)C)c1 [Torasemide]
  Conversion product: Hydroxy torasemide
